Test results reported in patent publication US11571454B2, “Anticancer peptides that synergistically enhance chemotherapeutic potency” (The Penn State Research Foundation, priority 2017, dated 2023).

Test system: NCI/ADR-RES (drug-resistant ovarian carcinoma) cells
Experiment: MTT cytotoxicity assay, NCI/ADR-RES
Type: cell-based, human
Protocol: All cells were cultured using standard culture conditions at 37° C., 5% CO2, and 95% humidity. A549 (CCL-185), OVCAR-3 (HTB-161), T24 (HTB-4), and NCI/ADR-RES were cultured in RPMI-1640 supplemented with 10% v/v fetal bovine serum (FBS), 2 mM L-glutamine (L-Gln), 10,000 units penicillin/mL, 10 mg/mL streptomycin, and 25 μg/mL amphotericin B. HUVEC (PCS-100-010) cells were cultured in Vascular Cell Basal Media (PCS-100-030) supplemented with an Endothelial Cell Growth Kit-VEGF (PCS-100-041) and 10 μg/mL gentamycin in culture flasks coated with 0.1% gelatin by incubating at 37° C. for 15 min. NL20 (CRL-2503) cells were cultured in Ham's F12 supplemented with 1.5 g/L sodium bicarbonate, 2.7 g/L glucose, 2.0 mM L-glutamine, 0.1 mM nonessential amino acids, 0.005 mg/ml insulin, 10 ng/ml epidermal growth factor, 0.001 mg/ml transferrin, 500 ng/ml hydrocortisone and 4% fetal bovine serum, as advised by American Type Culture Collection (ATCC).
Viability was calculated by comparing to an untreated control.
All experiments were performed with n>6.
Cell viability experiments were completed n>6 in two independent experiments and analyzed using GraphPad Prism 8 to fit curves and calculate IC50 values using inhibitor vs. normalized response non-linear regression model. IC50 values are reported as mean values±standard deviation. […] Pore size frequency distribution was completed by ImageJ FIJI on 4 independent cells and n=30 pores from SEM images. UV-Vis OD600 and CD spectra are means of 5 and 3 replicates, respectively and reported as mean±standard deviation. Individual UV-Vis and CD spectra, as well as fluorescent confocal and TEM micrographs, shown are representative plots from three individual experiments. CD data is with a variance in ellipticity of 0.2 millidegrees at each wavelength. Relative fluorescence data calculated from fluorescent confocal images represents the average of 10 independent measurements±standard deviation. For spheroid volume analysis, a Kruskal-Wallis test and Dunn's multiple comparisons test was performed using GraphPad Prism 8.

H-KRWHWWRRHWVVW-NH2 [MAD1]
IC50 (48 hours treatment, MTT, read-out: Cancerous (IC50, μM) NCl/ADR-RES): 85.6 µM | Therapeutic Index NCl/ADR-RES (IC50-HUVEC/IC50-NCI/ADR-RES): 1.2 | cytotoxic activity against NCI/ADR-RES (result in words): moderate activity
